Test results as given in paper PMC6522473, “The Pseudomonas aeruginosa lectin LecB binds to the exopolysaccharide Psl and stabilizes the biofilm matrix” (Nature Communications, 2019).

Biological target: T1, LecB (Pseudomonas aeruginosa, UniProt Q9HYN5)
T1 construct: purified LecB overexpressed in P. aeruginosa (lecB from PAO1, pJNLecB); homotetramer of 114 amino acid monomers
Test: ITC ([…] K, three titrations)
Format: binding

T1 sequence (Q9HYN5 entry or part of it): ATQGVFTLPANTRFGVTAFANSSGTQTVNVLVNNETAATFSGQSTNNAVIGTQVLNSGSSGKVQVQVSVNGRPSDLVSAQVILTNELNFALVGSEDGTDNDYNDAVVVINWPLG

Row | SMILES | Kd [µM]
1 | OC[C@H]1O[C@H](O[C@@H]2C(O)O[C@H](CO)[C@@H](O)[C@@H]2O)[C@@H](O)[C@@H](O)[C@@H]1O (stereo partly drawn) [α-1,2′ mannobiose] | 26.6 ± 2.61
2 | OC[C@H]1O[C@H](O[C@H]2[C@H](O)[C@@H](CO)OC(O)[C@H]2O)[C@@H](O)[C@@H](O)[C@@H]1O (stereo partly drawn) [α-1,3′ mannobiose] | 33.6 ± 7.18
